Read-outs that look alike come from different tables or passages of the source.

In data set [1] the target is LbHsp90 (Leishmania braziliensis, UniProt A4HL70). As to the kind of experiment: LbHsp90 ATPase kinetics (NADH-coupled enzymatic cascade). Type of data set: biochemical. The note with it: for LbHsp90 Inhibition (%): compound 50 μM, 3.5 μM LbHsp90, 1 mM ATP; for inhibition at 50 µM: read-out: LbHsp90 Inhibition (%), compound 50 μM, 3.5 μM LbHsp90, 1 mM ATP. As for the experimental part:
The reaction was initiated by the addition of ATP (1 mM) and absorbance changes at 346 nm were monitored for 30 min at 30 °C.
Native LbHsp90 kinetics was measured as described but in the absence of DMSO. Two control experiments were run as follows: • (1) Efficiency of the enzymatic cascade by the used compounds: HEPES buffer (20 mM, pH 7.5) containing KCl (100 mM), MgCl2 (1 mM), ADP (1 mM), NADH (0.18 mM), L-lactate dehydrogenase (4 U mL^−1), phosphoenolpyruvate (1 mM), pyruvate kinase (2.5 U mL^−1); • (2) Interference of the tested compound(s) with the enzymatic cascade: HEPES buffer (20 mM, pH 7.5) containing KCl (100 mM), MgCl2 (1 mM), ADP (1 mM), NADH (0.18 mM), L-lactate dehydrogenase (4 U mL^−1), phosphoenolpyruvate (1 mM), pyruvate kinase (2.5 U mL^−1) and 50 μM compound.
Accordingly, an in vitro assay developed for the evaluation of non-competitive allosteric modulators, which exploits ATPase kinetics data, was used. Briefly, the decrease in absorbance deriving from the continuous oxidation of NADH to NAD^+ produced by a multi-enzymatic cascade triggered by LbHp90-catalyzed ATP hydrolysis is followed spectrophotometrically over the course of 15 min (for details see Appendix B). All the experiments were normalized using the native ATPase activity of LbHsp90 measured in the presence of DMSO, the co-solvent selected for compounds solubilization.
Figure A1 Enzymatic cascade reactions to spectroscopically evaluate L. Hsp90 ATPase kinetics. The ADP produced by ATP hydrolysis during the chaperone cycle reacts with PEP (phosphoenolpyruvate) to form pyruvate in a reaction catalyzed by the enzyme pyruvate kinase (PK), whereby ATP is regenerated. Pyruvate then continues the cascade process and is reduced to lactic acid by action of lactate dehydrogenase (LDH), whereby NADH is oxidized to NAD^+.
LbHsp90 inhibition (%) = (1 − k/knative) * 100 k = ΔAbs/min = extrapolated apparent kinetic constant (Abs/min)

Data set [2] has as its system L. tropica promastigotes. As to the kind of experiment: Antileishmanial activity on L. tropica promastigotes (MTT). Type of data set: cell-based. Here is the method: Promastigote stage of L. infantum (MHOM/TN/80/IPT1, kindly provided by Dr. M. Gramiccia and Dr. T. Di Muccio, ISS, Roma) and L. tropica (MHOM/SY/2012/ISS3130) were cultured in RPMI 1640 medium (EuroClone) supplemented with 15% heat-inactivated fetal calf serum (EuroClone, Milan, Italy), 20 mM HEPES, and 2 mM L-glutamine at 23 °C. The MTT (3-[4.5-dimethylthiazol-2-yl]-2.5-diphenyltetrazolium bromide) method was used to estimate the 50% inhibitory concentration (IC50), with some modifications. Compounds were dissolved in DMSO and then diluted with medium to achieve the required concentrations. Test compounds were placed in 96 wells round bottom microplates and seven serial dilutions made. Amphotericin B was used as the reference antileishmanial drug. Parasites were diluted in complete medium to 5 × 10^6 parasites/mL and 100 μL of the suspension was seeded into the plates and incubated at 23 °C for 72 h. Then 20 μL of MTT solution (5 mg/mL) was added into each well, after 3 h the plates were centrifuged, the supernatants discarded and the resulting pellets dissolved in 100 μL of lysing buffer consisting of 20% (w/v) of a solution of SDS (Sigma), 40% of N,N-dimethylformamide (Merck) in H2O. The absorbance of the obtained solutions was measured at a wavelength of 550 nm with a reference at 650 nm with a microplate spectrophotometer (Synergy 4-Biotek, Milan, Italy) and analyzed with the Gen5® software for data processing.
The results are expressed as IC50, the dose of compound that is necessary to inhibit cell growth by 50%; each IC50 value is the mean ± standard deviation of at least three separate experiments performed in duplicate.

In data set [3] the test system is L. infantum promastigotes. Description: Antileishmanial activity on L. infantum promastigotes (MTT). In kind it is cell-based.
The subject of data set [4] is HMEC-1. Description: Cytotoxicity on HMEC-1 (MTT). Type of data set: cell-based, human. The note with it: Homo sapiens, read-out: Healthy Cell Lines IC50, HMEC-1. As for the experimental part:
(§1) Cytotoxicity was evaluated on human microvascular endothelial cells (HMEC-1, provided by the Centers for Disease Control, Atlanta, GA, USA), on immortalized mouse C57Bl/6 bone marrow derived macrophages (BMDM) from wild type lineage (generated in the laboratories of Drs. Douglas Golenbock and Kate Fitzgerald, University of Massachusetts, Worcester, MA, USA) and on a human acute monocytic leukaemia cell line (THP-1).
(§2) HMEC-1 were maintained in MCDB 131 medium (Invitrogen, Milan, Italy) supplemented with 10% fetal calf serum (HyClone), 10 ng/mL of epidermal growth factor, 1 μg/mL of hydrocortisone, 2 mM glutamine and 20 mM HEPES buffer, at 37 °C in 5% CO2. BMDM were maintained in DMEM (Euroclone) medium supplemented with 10% fetal bovine serum (HyClone, Celbio, Milan, Italy), 2 mM glutamine, and 25 mM of HEPES buffer solution (Euroclone). THP-1 were maintained in RPMI supplemented with 10% heat-inactivated FCS, 50 µM 2-mercaptoethanol, 10 µM sodium pyruvate, 20 mM HEPES, and 2 mM glutamine. In order to achieve differentiation into macrophages, cells were treated with 10 ng/mL phorbol myristate acetate (PMA) for 72 h.
(§3) For the cytotoxicity assay, cells were seeded in 96 well flat bottom tissue culture clusters (Costar, New York, NY, USA) at the following concentrations: HMEC 10^5 cell/mL, BMDM at 10^6 cell/mL, THP1 at 5 × 10^5 cell/mL. After 24 h, cells were treated with serial dilutions of test compounds in a final volume of 200 µL/well. Cell proliferation was evaluated after 72 h using the MTT assay.
(§4) The absorbances were measured with a microplate spectrophotometer (Synergy 4-Biotek) at a test wavelength of 550 nm and a reference wavelength of 650 nm. The results are expressed as IC50 as the concentration inhibiting 50% of cell growth. Each IC50 value is the mean and standard deviation of at least three separate experiments performed in duplicate.

Data set [5] concerns THP-1. Description: Cytotoxicity on THP-1 (MTT). Type of data set: cell-based, human. The note with it: Homo sapiens, THP-1; PMA-differentiated, 72 h, MTT; read-out: Healthy Cell Lines IC50, THP-1. As for the experimental part:
as §1, §2, §3, §4

Data set [6] relates to L. infantum amastigotes. Description: Antileishmanial activity on intramacrophage amastigotes of L. infantum. Conditions: Leishmania infantum; infected THP-1 macrophages, 72 h. In kind it is cell-based, Leishmania infantum. Here is the method: Cell monolayers were then washed and incubated in the presence of test compounds for 72 h. Slides were fixed with methanol and stained with Giemsa. The percentage of infected macrophages in treated and non-treated cells was determined by light microscopy.

Where [7] appears, read: Leishmania tropica, 72 h, 23 °C, MTT, read-out: Leishmania Promastigotes IC50, L. tropica.
[8] abbreviates: Leishmania infantum, 72 h, 23 °C, MTT, read-out: Leishmania Promastigotes IC50, L. infantum.
The mark [9] stands for this setting: 72 h, 23 °C, MTT; read-out: Leishmania Promastigotes IC50, L. tropica.
The mark [10] stands for this setting: 72 h, 23 °C, MTT; read-out: Leishmania Promastigotes IC50, L. infantum.

Chain of LbHsp90 (A4HL70 entry or part of it): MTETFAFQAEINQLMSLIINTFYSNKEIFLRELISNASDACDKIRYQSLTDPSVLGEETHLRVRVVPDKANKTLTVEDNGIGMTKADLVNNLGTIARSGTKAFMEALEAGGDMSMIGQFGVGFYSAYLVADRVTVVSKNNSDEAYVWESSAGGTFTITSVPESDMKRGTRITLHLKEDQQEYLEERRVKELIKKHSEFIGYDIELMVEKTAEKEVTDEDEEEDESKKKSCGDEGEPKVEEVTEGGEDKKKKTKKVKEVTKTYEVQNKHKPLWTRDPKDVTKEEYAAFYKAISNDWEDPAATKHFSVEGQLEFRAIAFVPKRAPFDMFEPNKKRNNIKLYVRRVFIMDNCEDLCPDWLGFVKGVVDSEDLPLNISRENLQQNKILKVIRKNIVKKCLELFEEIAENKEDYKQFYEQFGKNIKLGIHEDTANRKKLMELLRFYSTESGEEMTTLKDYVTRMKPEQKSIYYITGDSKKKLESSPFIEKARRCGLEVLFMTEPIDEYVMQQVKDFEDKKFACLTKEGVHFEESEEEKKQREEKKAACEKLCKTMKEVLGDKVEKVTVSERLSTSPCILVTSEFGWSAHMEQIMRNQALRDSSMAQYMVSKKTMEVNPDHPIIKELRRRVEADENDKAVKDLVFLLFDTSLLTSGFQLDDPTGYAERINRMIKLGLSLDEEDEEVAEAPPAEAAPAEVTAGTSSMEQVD

Take `CC1=C(O)C(=O)C=C2C1=CC=C1[C@@]2(C)CC[C@@]2(C)[C@@H]3C[C@](C)(C(=O)O)CC[C@]3(C)CC[C@]12C` [CE, celastrol]: the “LbHsp90 Inhibition (%)” value in data set [1] came to 28.9 ± 5.4%. Also, the inhibition (commonly the change of the read-out against control, counted positive when it falls) at 50 µM in data set [1] was 30%. In addition, the concentration for half-maximal inhibition (IC50) (in general, the point on the concentration scale where inhibition reaches its midpoint) in data set [2] (Leishmania tropica; 72 h, 23 °C, MTT; read-out: Leishmania Promastigotes IC50, L. tropica) is 490 ± 170 nM; in data set [3] (Leishmania infantum; 72 h, 23 °C, MTT; read-out: Leishmania Promastigotes IC50, L. infantum) it was 210 ± 70 nM; in data set [4] (HMEC-1, 72 h), 380 ± 80 nM; in data set [5] it was 900 ± 300 nM.
Regarding `CC1=C(O)C(=O)C=C2C1=CC=C1[C@@]2(C)CC[C@@]2(C)[C@@H]3C[C@](C)(C(=O)NCCN4CCCCC4)CC[C@]3(C)CC[C@]12C` [compound 1, (2R,4aS,6aS,12bR,14aS,14bR)-10-hydroxy-2,4a,6a,9,12b,14a-hexamethyl-11-oxo-N-(2-(piperidin-1-yl)ethyl)-1,2,3,4,4a,5,6,6a,11,12b,13,14,14a,14b-tetradecahydropicene-2-carboxamide], the melting point (as a rule, the temperature, or range, at which the solid turns liquid) lay within 137 to 138.6 °C. The compound also gave a concentration for half-maximal inhibition (IC50) in data set [6] of 190 ± 110 nM. For the same compound, in data set [2] (setting [7]), the 50% inhibitory concentration (IC50) was determined as 90 ± 30 nM. The IC50 in data set [3] (setting [8]) came out at 60 ± 20 nM. In data set [4] (HMEC-1, 72 h, MTT), the IC50 came to 510 ± 80 nM. Also, the IC50 in data set [5] stood at 2080 ± 240 nM.
`CC1=C(O)C(=O)C=C2C1=CC=C1[C@@]2(C)CC[C@@]2(C)[C@@H]3C[C@](C)(C(=O)NCCN4CCCC4)CC[C@]3(C)CC[C@]12C` [compound 3, (2R,4aS,6aS,12bR,14aS,14bR)-10-hydroxy-2,4a,6a,9,12b,14a-hexamethyl-11-oxo-N-(2-(pyrrolidin-1-yl)ethyl)-1,2,3,4,4a,5,6,6a,11,12b,13,14,14a,14b-tetradecahydropicene-2-carboxamide] gave a melting point of 135.6 to 138 °C. The compound further came in with an IC50 in data set [6] of 130 ± 90 nM. Moreover, in data set [1], the “LbHsp90 Inhibition (%)” value is 97.8 ± 1.2% and the inhibition at 50 µM was 95%. For the same compound, in data set [2] (setting [9]), the concentration for half-maximal inhibition (IC50) came to 80 ± 40 nM. Also, in data set [2] (setting [7]), the 50% inhibitory concentration (IC50) was less than 100 nM. For the same compound, the 50% inhibitory concentration (IC50) in data set [3] (setting [10]) was found to be 60 ± 10 nM. Further, the concentration for half-maximal inhibition (IC50) in data set [3] (setting [8]) is less than 100 nM. Moreover, in data set [4] (HMEC-1, 72 h, MTT), the IC50 was determined as 530 ± 170 nM. Besides, the IC50 in data set [5] was 2790 ± 440 nM.
`CC1=C(O)C(=O)C=C2C1=CC=C1[C@@]2(C)CC[C@@]2(C)[C@@H]3C[C@](C)(C(=O)NCC45CCCN4CCC5)CC[C@]3(C)CC[C@]12C` [compound 5, (2R,4aS,6aS,12bR,14aS,14bR)-N-((hexahydro-1H-pyrrolizin-7a-yl)methyl)-10-hydroxy-2,4a,6a,9,12b,14a-hexamethyl-11-oxo-1,2,3,4,4a,5,6,6a,11,12b,13,14,14a,14b-tetradecahydropicene-2-carboxamide] showed a melting point of 250.8 to 254.7 °C. In data set [6], half-maximal inhibition (IC50) was put at 520 ± 280 nM. Further, the concentration for half-maximal inhibition (IC50) in data set [2] (setting [7]) is 120 ± 50 nM. For the same compound, the IC50 in data set [3] (setting [8]) was 120 ± 20 nM. Further, in data set [4] (HMEC-1, 72 h, MTT), the IC50 stood at 120 ± 30 nM. Further, in data set [5], the IC50 was 1880 ± 340 nM.
With `CC1=C(O)C(=O)C=C2C1=CC=C1[C@@]2(C)CC[C@@]2(C)[C@@H]3C[C@](C)(C(=O)NCCNc4ccnc5cc(Cl)ccc45)CC[C@]3(C)CC[C@]12C` [compound 6, (2R,4aS,6aS,12bR,14aS,14bR)-N-(2-((7-chloroquinolin-4-yl)amino)ethyl)-10-hydroxy-2,4a,6a,9,12b,14a-hexamethyl-11-oxo-1,2,3,4,4a,5,6,6a,11,12b,13,14,14a,14b-tetradecahydropicene-2-carboxamide], the melting point fell in the range of 165.7 to 167.9 °C. This compound also displayed a concentration for half-maximal inhibition (IC50) in data set [6] of 660 ± 60 nM. Moreover, the half-maximal inhibitory concentration (IC50) in data set [2] (setting [7]) was found to be 140 ± 30 nM. Besides, in data set [3] (setting [8]), the IC50 stood at 90 ± 30 nM. Besides, the IC50 in data set [4] (HMEC-1, 72 h, MTT) amounted to 400 ± 30 nM. Further, in data set [5], the half-maximal inhibitory concentration (IC50) worked out at 850 ± 240 nM.
`CC1=C(O)C(=O)C=C2C1=CC=C1[C@@]2(C)CC[C@@]2(C)[C@@H]3C[C@](C)(C(=O)NCCSS(C)(=O)=O)CC[C@]3(C)CC[C@]12C` [compound 9, S-(2-((2R,4aS,6aS,12bR,14aS,14bR)-10-hydroxy-2,4a,6a,9,12b,14a-hexamethyl-11-oxo-1,2,3,4,4a,5,6,6a,11,12b,13,14,14a,14b-tetradecahydropicene-2-carboxamido)ethyl) methanesulfonothioate]: the IC50 was 3070 ± 1360 nM in data set [2] (setting [9]); 2000 to 4000 nM in data set [2] (setting [7]); 2310 ± 280 nM in data set [3] (setting [10]); 2000 to 4000 nM in data set [3] (setting [8]); 4070 ± 50 nM in data set [4] (HMEC-1, 72 h, MTT); 3280 ± 900 nM in data set [5].

Source of the values: publication PMC7824787, “Design, Synthesis and In Vitro Investigation of Novel Basic Celastrol Carboxamides as Bio-Inspired Leishmanicidal Agents Endowed with Inhibitory Activity against Leishmania Hsp90” (Biomolecules, 2021).
